Active and inactive are the calls of the source.
What was measured:
Cytochrome P450 3A4 = Cytochrome P450 3A4 (Homo sapiens, UniProt P08684);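 note: CYP3A4 tested as one member of a cytochrome P450 panel screen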
Cytochrome P450 1A2 = target: T1, Cytochrome P450 1A2 (Homo sapiens, UniProt P05177);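 note: PubChem cytochrome P450 panel assay, CYP1A2 panel member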
T1 sequence (P05177 whole entry): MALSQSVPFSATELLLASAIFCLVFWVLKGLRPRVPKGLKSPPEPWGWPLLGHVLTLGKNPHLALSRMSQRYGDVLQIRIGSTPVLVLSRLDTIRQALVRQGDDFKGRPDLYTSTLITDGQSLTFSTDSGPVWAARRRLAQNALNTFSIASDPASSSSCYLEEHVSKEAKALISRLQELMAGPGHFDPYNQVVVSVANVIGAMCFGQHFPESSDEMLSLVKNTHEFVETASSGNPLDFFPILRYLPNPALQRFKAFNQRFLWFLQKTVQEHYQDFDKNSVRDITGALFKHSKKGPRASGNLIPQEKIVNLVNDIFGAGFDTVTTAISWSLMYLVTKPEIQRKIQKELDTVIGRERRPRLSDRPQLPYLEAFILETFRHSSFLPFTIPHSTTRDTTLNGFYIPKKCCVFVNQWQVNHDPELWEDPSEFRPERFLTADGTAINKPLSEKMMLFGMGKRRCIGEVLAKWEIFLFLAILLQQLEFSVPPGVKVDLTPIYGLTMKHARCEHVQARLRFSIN

Cytochrome P450 2D6 = Cytochrome P450 2D6 (Homo sapiens, UniProt P10635);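 note: CYP2D6 member of a cytochrome P450 panel assay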
INS1 = assay: INS-1E survival protection against cytokine death – cell-based, luminescence, retest, dose response (AID 449756); format: functional; conditions: Rattus norvegicus;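 note: cell death triggered by IL-1 beta plus TNF-alpha plus IFN-gamma mixture; protective hits raise ATP signal compared with cytokine alone wells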
[1] = target: T2, Corticotropin-releasing factor receptor 2/Corticotropin-releasing factor-binding protein (Homo sapiens, UniProt P24387+Q13324); assay: Dose Response confirmation of uHTS hits for small molecule antagonists of the CRF-binding protein and CRF-R2 receptor complex.; format: functional; conditions: read-out: IC50_Mean
T2 sequence (Q13324 whole entry): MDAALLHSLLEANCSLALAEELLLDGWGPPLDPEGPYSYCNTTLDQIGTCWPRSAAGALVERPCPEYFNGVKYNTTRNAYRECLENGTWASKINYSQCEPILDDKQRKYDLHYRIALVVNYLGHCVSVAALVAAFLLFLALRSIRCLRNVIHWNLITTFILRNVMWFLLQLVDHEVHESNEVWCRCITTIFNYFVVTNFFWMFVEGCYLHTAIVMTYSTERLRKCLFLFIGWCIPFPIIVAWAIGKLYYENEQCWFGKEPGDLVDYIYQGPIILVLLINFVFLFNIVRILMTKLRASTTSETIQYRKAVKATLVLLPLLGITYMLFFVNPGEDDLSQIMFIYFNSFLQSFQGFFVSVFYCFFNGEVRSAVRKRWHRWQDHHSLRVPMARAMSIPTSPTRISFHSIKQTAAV
T2 sequence (P24387 whole entry): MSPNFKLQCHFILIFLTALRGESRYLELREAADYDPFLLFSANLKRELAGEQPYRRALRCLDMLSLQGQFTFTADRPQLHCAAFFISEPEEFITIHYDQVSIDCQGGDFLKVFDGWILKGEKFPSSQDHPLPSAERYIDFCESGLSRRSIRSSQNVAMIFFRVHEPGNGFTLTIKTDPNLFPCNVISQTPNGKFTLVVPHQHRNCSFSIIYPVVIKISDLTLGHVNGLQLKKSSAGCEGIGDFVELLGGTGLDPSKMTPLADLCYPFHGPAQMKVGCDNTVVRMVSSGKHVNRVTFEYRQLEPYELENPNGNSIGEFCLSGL

[2] = target: T2, Corticotropin-releasing factor receptor 2/Corticotropin-releasing factor-binding protein; assay: activators of CRF receptor 2 with binding protein – uHTS hits, confirmation (AID 602473); format: functional; conditions: read-out: EC50_Mean
[3] = target: T3, Replicative DNA helicase DnaB (Mycobacterium tuberculosis, UniProt P9WMR3); assay: DnaB intein splicing inhibitors, dose response, biochemical, cell-free fluorescence (AID 449749); format: functional
T3 sequence (P9WMR3 whole entry): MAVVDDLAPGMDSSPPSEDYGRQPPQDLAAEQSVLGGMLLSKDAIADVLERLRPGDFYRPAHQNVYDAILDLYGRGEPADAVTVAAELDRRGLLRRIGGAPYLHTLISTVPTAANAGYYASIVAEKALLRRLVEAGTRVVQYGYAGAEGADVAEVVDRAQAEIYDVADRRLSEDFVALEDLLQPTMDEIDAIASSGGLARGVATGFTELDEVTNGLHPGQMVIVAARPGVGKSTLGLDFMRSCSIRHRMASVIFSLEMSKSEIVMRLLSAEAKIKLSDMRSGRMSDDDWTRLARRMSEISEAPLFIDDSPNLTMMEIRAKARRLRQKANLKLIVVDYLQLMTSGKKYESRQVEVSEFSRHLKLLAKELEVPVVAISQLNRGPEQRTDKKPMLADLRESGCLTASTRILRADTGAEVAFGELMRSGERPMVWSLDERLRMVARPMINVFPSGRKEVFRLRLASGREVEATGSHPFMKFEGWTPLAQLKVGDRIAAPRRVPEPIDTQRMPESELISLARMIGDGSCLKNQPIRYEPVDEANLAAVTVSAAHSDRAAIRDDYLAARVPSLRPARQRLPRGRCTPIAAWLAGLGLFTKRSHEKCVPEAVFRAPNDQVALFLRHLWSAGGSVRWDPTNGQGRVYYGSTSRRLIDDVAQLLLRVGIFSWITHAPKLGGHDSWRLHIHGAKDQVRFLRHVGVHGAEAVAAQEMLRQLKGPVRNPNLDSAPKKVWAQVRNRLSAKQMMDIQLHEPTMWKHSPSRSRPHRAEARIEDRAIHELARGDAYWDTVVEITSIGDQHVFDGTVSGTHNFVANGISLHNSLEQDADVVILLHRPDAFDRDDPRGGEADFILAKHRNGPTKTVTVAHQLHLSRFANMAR

Protein RecA = target: T4, Protein RecA (Mycobacterium tuberculosis, UniProt P9WHJ3); assay: Fluorescence Cell-Free Homogeneous Dose Retest to Identify Inhibitors of RecA-Intein Splicing Activity. [Related pubchem assays (depositor defined):AID2097, AID2223, AID489010, AID492950]; format: functional
T4 sequence (P9WHJ3 whole entry): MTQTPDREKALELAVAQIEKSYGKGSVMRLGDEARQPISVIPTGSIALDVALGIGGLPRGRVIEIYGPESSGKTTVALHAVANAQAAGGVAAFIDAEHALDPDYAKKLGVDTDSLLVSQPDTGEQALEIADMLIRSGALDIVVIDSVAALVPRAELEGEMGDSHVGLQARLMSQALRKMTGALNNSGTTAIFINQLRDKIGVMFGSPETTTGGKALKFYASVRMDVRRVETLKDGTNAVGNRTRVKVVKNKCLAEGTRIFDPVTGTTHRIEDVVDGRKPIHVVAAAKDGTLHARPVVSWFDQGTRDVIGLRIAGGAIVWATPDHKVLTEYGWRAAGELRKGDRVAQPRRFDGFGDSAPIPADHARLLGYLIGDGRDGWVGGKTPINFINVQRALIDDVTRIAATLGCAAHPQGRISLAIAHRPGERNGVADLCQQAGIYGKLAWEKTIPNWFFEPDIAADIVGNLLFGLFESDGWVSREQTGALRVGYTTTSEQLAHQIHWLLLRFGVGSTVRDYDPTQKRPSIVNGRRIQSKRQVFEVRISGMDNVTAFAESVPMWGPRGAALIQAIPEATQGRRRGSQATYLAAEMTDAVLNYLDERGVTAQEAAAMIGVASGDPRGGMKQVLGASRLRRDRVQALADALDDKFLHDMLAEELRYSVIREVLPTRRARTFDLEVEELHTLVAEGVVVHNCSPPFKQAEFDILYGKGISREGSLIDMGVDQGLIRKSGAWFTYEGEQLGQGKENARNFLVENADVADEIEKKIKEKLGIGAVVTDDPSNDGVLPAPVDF

[4] = target: T5, Heat shock factor protein 1 (Mus musculus, UniProt P38532); assay: decrease of HSF1-responsive luciferase luminescence – cell-based, NIH3T3, dose retest, confirmation (AID 2382); format: functional;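 note: NIH3T3 fibroblasts with HSF1-driven luciferase reporter stressed by proteasome inhibitor MG132; luminescence from HSF1-driven luciferase expression after 8 hours of MG132 stress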
T5 sequence (P38532 whole entry): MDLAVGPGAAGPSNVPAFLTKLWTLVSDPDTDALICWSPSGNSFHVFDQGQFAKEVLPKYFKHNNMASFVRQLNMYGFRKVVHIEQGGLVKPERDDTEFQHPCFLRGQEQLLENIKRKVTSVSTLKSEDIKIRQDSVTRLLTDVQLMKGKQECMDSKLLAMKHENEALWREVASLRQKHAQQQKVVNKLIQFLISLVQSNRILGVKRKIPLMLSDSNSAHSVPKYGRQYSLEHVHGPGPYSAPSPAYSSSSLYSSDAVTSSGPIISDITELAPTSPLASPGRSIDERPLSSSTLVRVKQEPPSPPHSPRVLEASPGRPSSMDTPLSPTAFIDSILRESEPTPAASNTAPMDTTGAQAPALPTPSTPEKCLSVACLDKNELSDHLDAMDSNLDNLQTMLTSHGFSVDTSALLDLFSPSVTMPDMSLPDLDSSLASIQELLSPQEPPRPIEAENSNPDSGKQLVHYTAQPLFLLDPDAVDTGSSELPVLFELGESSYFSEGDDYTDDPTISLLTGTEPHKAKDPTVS

Cytochrome P450 2C9 = Cytochrome P450 2C9 (Homo sapiens, UniProt P11712)
Cytochrome P450 2C19 = Cytochrome P450 2C19 (Homo sapiens, UniProt P33261); assay: Cytochrome panel assay with activity outcomes. Panel member name: p450-cyp2c19 Compounds with AC50 equal or less than 10 uM are considered active; format: functional; conditions: read-out: AC50
Cytochrome P450 2C19, sequence (P33261 whole entry): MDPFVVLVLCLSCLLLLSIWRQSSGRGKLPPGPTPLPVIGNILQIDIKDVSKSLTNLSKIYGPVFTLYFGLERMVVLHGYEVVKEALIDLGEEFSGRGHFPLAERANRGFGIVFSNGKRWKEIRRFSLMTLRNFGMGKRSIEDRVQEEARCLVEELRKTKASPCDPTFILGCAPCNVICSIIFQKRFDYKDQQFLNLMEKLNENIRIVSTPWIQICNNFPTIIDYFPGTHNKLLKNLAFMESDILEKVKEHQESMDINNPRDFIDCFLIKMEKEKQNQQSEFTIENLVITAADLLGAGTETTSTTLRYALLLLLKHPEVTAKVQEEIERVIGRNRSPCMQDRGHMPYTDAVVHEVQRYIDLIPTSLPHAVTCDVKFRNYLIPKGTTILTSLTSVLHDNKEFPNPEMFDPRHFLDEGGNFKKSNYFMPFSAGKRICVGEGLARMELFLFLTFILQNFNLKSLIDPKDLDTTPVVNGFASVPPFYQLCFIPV

Cytochrome P450 2D6, sequence (P10635 whole entry): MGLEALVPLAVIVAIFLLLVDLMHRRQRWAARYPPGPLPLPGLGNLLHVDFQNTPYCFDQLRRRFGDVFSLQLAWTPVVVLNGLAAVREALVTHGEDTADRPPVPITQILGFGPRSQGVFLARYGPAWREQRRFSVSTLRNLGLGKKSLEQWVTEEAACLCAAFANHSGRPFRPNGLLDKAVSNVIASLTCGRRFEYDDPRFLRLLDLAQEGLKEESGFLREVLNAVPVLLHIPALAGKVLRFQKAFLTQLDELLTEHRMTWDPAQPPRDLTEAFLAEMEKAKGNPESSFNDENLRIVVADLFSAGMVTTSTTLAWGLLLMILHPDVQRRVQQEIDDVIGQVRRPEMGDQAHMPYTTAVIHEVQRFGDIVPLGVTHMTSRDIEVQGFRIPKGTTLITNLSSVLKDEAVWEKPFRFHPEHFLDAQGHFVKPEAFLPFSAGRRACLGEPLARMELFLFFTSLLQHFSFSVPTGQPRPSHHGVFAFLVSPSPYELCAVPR
Cytochrome P450 3A4, sequence (P08684 whole entry): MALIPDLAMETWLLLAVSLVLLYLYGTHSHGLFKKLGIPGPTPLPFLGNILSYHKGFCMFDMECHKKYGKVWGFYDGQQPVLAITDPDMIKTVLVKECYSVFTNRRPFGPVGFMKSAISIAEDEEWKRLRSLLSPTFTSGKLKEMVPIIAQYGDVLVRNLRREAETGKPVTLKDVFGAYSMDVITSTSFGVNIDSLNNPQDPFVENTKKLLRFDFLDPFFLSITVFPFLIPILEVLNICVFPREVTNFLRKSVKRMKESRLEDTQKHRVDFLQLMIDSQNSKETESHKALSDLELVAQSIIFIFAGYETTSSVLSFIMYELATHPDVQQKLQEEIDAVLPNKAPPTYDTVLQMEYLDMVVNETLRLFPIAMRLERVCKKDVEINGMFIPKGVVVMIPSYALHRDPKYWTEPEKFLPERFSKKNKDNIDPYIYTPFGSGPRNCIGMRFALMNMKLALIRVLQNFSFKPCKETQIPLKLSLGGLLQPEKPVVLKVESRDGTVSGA
Cytochrome P450 2C9, sequence (P11712 whole entry): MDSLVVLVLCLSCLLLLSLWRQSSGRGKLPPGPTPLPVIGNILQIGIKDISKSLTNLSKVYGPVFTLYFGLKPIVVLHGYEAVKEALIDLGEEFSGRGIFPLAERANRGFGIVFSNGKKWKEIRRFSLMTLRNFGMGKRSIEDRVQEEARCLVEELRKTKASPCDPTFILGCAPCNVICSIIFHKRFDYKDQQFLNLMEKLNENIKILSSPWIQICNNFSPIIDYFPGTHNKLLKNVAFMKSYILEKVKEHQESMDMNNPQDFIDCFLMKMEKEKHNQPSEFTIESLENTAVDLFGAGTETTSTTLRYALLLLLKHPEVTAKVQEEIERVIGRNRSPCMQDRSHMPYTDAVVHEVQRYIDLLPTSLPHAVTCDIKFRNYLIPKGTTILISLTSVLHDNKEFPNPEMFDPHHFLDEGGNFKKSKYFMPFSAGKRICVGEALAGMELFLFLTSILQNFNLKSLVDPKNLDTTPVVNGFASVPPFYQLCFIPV

c1ccc(N2CC[C@@]3(CCCNC3)C2)cc1
AC50 (Cytochrome P450 3A4): 20 µM (inconclusive) | AC50 (Cytochrome P450 1A2): 39.8 µM (inconclusive) | AC50 (Cytochrome P450 2D6): 10 µM (inconclusive)

COc1ccc(-c2ccnc(SCC(=O)N3CCN(c4ccccc4)CC3)n2)cc1
AC50 (INS1): > 260 µM (inactive) | IC50 [1]: > 47.1 µM (inactive) | EC50 [2]: > 53 µM (inactive)

COc1cccc(OC(=O)CSc2nnc(-c3ccccc3Br)o2)c1
AC50 [3]: 3.09 µM (active) | EC50 (Protein RecA): 5.7 µM (active)

Cc1cc(C)nc(N=C(N)Nc2ccc3c(c2)OCCO3)n1
EC50 [4]: > 195 µM (not active)

CC(C)c1nnc(NC(=O)C2CCN(C(=O)c3ccco3)CC2)s1
EC50 [4]: > 195 µM (not active)

C=CCn1c(SCC(=O)N2CCc3ccccc3C2)nc2sc(C)c(C)c2c1=O
EC50 [4]: > 195 µM (not active)

CNCC(O)CN(c1ccccc1)c1ccccc1 (stereo not given)
AC50 [3]: 34.3 µM (active) | EC50 (Protein RecA): 10.8 µM (active)

N#CC(c1ccccc1F)(c1ncc(C(F)(F)F)cc1Cl)N1CCOCC1 (stereo not given)
AC50 (Cytochrome P450 3A4): 22.4 µM (inconclusive) | AC50 (Cytochrome P450 1A2): 25.1 µM (inconclusive) | AC50 (Cytochrome P450 2C9): 31.6 µM (inconclusive)

C[C@H]1CCCC=CC2C[C@H](O)C[C@@H]2[C@H](O)/C=C\C(=O)O1 (stereo not given in full)
AC50 (Cytochrome P450 3A4): 31.6 µM (inconclusive) | AC50 (Cytochrome P450 1A2): 15.8 µM (inconclusive) | AC50 (Cytochrome P450 2C9): 15.8 µM (inconclusive)

CCN1C(=O)C(O)(CC(=O)/C=C/C=C/c2ccccc2)c2ccccc21 (stereo not given)
AC50 (Cytochrome P450 3A4): 17.8 µM (inconclusive) | AC50 (Cytochrome P450 2C19): 35.5 µM (inconclusive) | AC50 (Cytochrome P450 2C9): 0.141 µM (inconclusive)

Cc1cc(C)cc(C(=O)OC2C[C@H]3CC[C@@H](C2)N3C)c1 (stereo not given in full)
AC50 (Cytochrome P450 1A2): 25.1 µM (inconclusive) | AC50 (Cytochrome P450 2C19): 39.8 µM (inconclusive)

COc1ccc(-n2c3c(c(=O)[nH]c2=O)C(C(F)(F)F)(C(F)(F)F)NC(CC(C)C)=N3)cc1
AC50 (Cytochrome P450 3A4): 17.8 µM (inconclusive) | AC50 (Cytochrome P450 1A2): 39.8 µM (inconclusive) | AC50 (Cytochrome P450 2C19): 10 µM (inconclusive) | AC50 (Cytochrome P450 2C9): 28.2 µM (inconclusive)

Cc1nn(-c2ccccc2)c(C)c1NC(=O)COc1ccc(Br)cc1Cl
AC50 (INS1): 34.2 µM (active)

O=C(c1ccc(Cl)cc1)n1cnc2ccccc21
AC50 [3]: 7.49 µM (active) | EC50 (Protein RecA): 8.13 µM (active)

CCOc1ccccc1N1CCN(C(=O)c2ccc(-c3ccc(OC(C)=O)cc3)cc2)CC1
AC50 [3]: 2.31 µM (active) | EC50 (Protein RecA): 58.4 µM (active)

O=c1c(-c2cc(F)cc(F)c2)nc2cnc(N3CCNCC3)nc2n1Cc1cccs1
AC50 (Cytochrome P450 1A2): 2.51 µM (inconclusive) | AC50 (Cytochrome P450 2C19): 39.8 µM (inconclusive)

CNc1ncncc1-c1ccccc1OC
AC50 (Cytochrome P450 3A4): 0.251 µM (inconclusive) | AC50 (Cytochrome P450 1A2): 1.58 µM (inconclusive)

O=c1c2ccccc2nc(N2CCCC2)n1-c1ccc(Cl)cc1
AC50 (Cytochrome P450 2C19): 1.26 µM (inconclusive) | AC50 (Cytochrome P450 2D6): 10 µM (inconclusive) | IC50 [1]: > 47.1 µM (inactive) | EC50 [2]: > 53 µM (inactive)

CCC(C)NC(=O)c1ccccc1NC(=O)Nc1ccccc1 (stereo not given)
AC50 (Cytochrome P450 1A2): 3.16 µM (inconclusive) | AC50 (Cytochrome P450 2C9): 15.8 µM (inconclusive)

COc1cccc(/C=N\NC(=O)c2cc(OCC(F)(F)F)ccc2OCC(F)(F)F)c1
AC50 (Cytochrome P450 3A4): 35.5 µM (inconclusive) | AC50 (Cytochrome P450 2C19): 0.891 µM (inconclusive)

C=CCOc1c2ccc(C(=O)NC3CCCc4ccccc43)cc2nn1C (stereo not given)
AC50 (Cytochrome P450 1A2): 15.8 µM (inconclusive) | AC50 (Cytochrome P450 2D6): 22.4 µM (inconclusive)

CCOC(=O)Cc1n[nH]c2c1C(c1ccoc1)C(C#N)=C(N)O2 (stereo not given)
AC50 [3]: 18.4 µM (active) | EC50 (Protein RecA): 3.42 µM (active)

O=[N+]([O-])c1ccc2c(c1)N=C1O[C@H](c3ccc([C@H]4OC5=Nc6cc([N+](=O)[O-])ccc6NC5=C4O)cc3)C(O)=C1N2
AC50 (Cytochrome P450 3A4): 3.16 µM (inconclusive) | AC50 (Cytochrome P450 1A2): 3.16 µM (inconclusive)

COc1cc(OC)cc(C2C(C#N)=C(N)Oc3[nH]nc(-c4cccnc4)c32)c1 (stereo not given)
AC50 [3]: 18 µM (active) | EC50 (Protein RecA): 2.13 µM (active)

Cn1cnnc1SCC(=O)OCN1C(=O)c2ccccc2C1=O
AC50 (Cytochrome P450 1A2): 25.1 µM (inconclusive) | AC50 (Cytochrome P450 2C19): 10 µM (inconclusive)

— ChEMBL document CHEMBL1201862, “PubChem BioAssay data set” (2004)
